Read-outs that look alike come from different tables or passages of the source. Peptide text beside a SMILES is read from it. * marks the point of attachment. Palmitoyl = CCCCCCCCCCCCCCCC(=O)*
Tests used:
[1] = cited from earlier work
[2] = cited from earlier work; remark: listed apart in the source
From the text: Supplement mmc1.docx, table 1: Table S1. Lipopeptide-based drugs, with their characteristics, disease target, and the year of approval. | column: Plasma protein binding

[3] = test system: HT-29 colorectal adenocarcinoma cells; test: In vitro antitumor effect, AlamarBlue; type: cell-based, human; details: 5 μM pCM15 lipopeptide, 24 h treatment, vs medium-treated control, mean ± SD, n = 4
Procedure: All data are presented as mean ± SD (n = 4). Statistical analysis was performed using one-way analysis of variance (ANOVA), followed by Tukey's post-hoc test. Statistical significances were denoted as ^∗P < 0.05, ^∗∗P < 0.01, and ^∗∗∗P < 0.001.

[4] = DLS of peptide-loaded poloxamer micelles; type: physicochemical; details: lipopeptide-loaded Plur123 micelles, DLS 37 °C
Procedure: Peptide-loaded poloxamer micelles were prepared by solubilizing the peptides in 50 g/L poloxamer solutions in PBS (pH 7.4). The peptides were previously dissolved in DMSO, and then the poloxamer solutions were added. The final DMSO content was 5%. The solutions were left shaking overnight to allow enough time for solubilization. Before the measurements, PBS was added to the solutions to reach 5 g/L poloxamer concentration. In the biological experiments, these samples were diluted twice with the corresponding culture media.
The average hydrodynamic diameter (dH) and polydispersity of the peptide-loaded micelles were determined using a dynamic light scattering (DLS) instrument (NanoLab 3D^TM, LS Instruments, Fribourg, Switzerland) based on three-dimensional (3D) modulation technology. A fibre-coupled diode laser operating at 638 nm served as the light source. The measurements were performed at a detection angle of 90° and at temperatures of 37.00 ± 0.02 °C. The recorded autocorrelation functions were analyzed using the second order cumulant expansion method. Before the measurements, the samples were filtered with a 0.2 μm syringe filter.

[5] = Encapsulation efficacy: HPLC of lipopeptide passing 0.2 μm filter; type: physicochemical; details: poloxamer 5 g/L in PBS, peptide pre-dissolved in DMSO (pL1 200 μM, pCM15 100 μM, pATIPC 10 μM); centrifuged through 0.2 μm nylon filter, HPLC AUC vs fully solubilized lipopeptide
Procedure: Section S3 in the Supplementary data contains the detailed characterization of the mixed micelles (Fig. S7A). First, calibration curves were plotted for each lipopeptide in a medium in which the compounds were perfectly soluble, namely in eluent B (0.1% TFA in acetonitrile:water (4:1, V/V) solution) (Figs. S7B−D). Next, poloxamer-lipopeptide constructs were prepared as follows: the lipopeptide samples were pre-dissolved in DMSO and then mixed with the poloxamer/PBS solutions, left shaking overnight. In the next day, the concentration was adjusted by adding PBS to the solutions. The composition of the samples was as follows: poloxamer 5 g/L and peptides (pL1 200 μM, pCM15 100 μM, and pATIPC 10 μM). Then, lipopeptide/poloxamer constructs were centrifuged using a 0.2 μm nylon filter, diluted twice with eluent B, and injected to the HPLC column. […] The highest encapsulation efficacy was measured for the shortest lipopeptide pL1, and all three poloxamers formed mixed micelles with the lipopeptides in more than 80%. It was assumed that the filtered part of the samples contains the lipopeptide aggregates with particle size of […].
Fig. S7. Formulation of Lipopeptides with Poloxamers. Overview of the analytical characterization of the samples (A). Calibration curves for the fully solubilized lipopeptides with the linear regression equation (B-D). […]

[6] = Antigen release, dialysis membrane assay; type: physicochemical; details: pATIPC-Plur123 mixed micelles (80 µM peptide, Plur123 40 g/L in PBS), dialysis 10K MWCO, 37 °C, after 4 h, HPLC AUC vs 0 h
Procedure: Lipopeptide release was assessed by incubating the mixed micelles in PBS at 37 °C for 6 hours, using the dialysis membrane method. Briefly, the pATIPC lipopeptide (80 µM) was dissolved in Plur123 (40 g/L, in PBS), mixed, then centrifuged using a 0.2 µm Nylon filter to remove the aggregated peptide particles. The formation of the mixed micelles was checked by DLS and the peptide content was measured by HPLC, as described above. Mixed micelle solution was then loaded into a Slide-A-Lyzer Mini Dialysis Device (10K MWCO) (Thermo Fisher Scientific, Waltham, MA, USA) and incubated at 37 °C using PBS as release medium. At 0, 1, 4 and 6 h, the micelles within the dialysis membrane were taken for measurements of particle size and distribution by DLS.

MRSA strain = test system: MRSA strain; parameters: method as in PMID 34822969; details: cited from earlier work
From the text: (§1) However, since this peptide contains only four amino aci ...

S. aureus = test system: S. aureus; parameters: method as in 2 sources, one per row (each row's own in cited_ref): ref 69 = [69]; PMID 34822969; doi:10.1016/j.micpath.2021.105301; 69 Roshanak S. Shahidi F. Tabatabaei Yazdi F. Buforin I an alternative to conventional antibiotics: Evaluation of the antimicrobial properties, stability, and safety Microb. Pathog. 161 2021 105301 10 ||| ref 53,70 = [53]; PMID 10890923; doi:10.1073/pnas.150518097; 53 Park C.B. Yi K.S. Matsuzaki K. Structure-activity analysis of buforin II, a histone H2A-derived antimicrobial peptide: The proline hinge is responsible for the cell-penetrating ability of buforin I || [70]; 70 Lee H. Yang S. Dimerization of cell-penetrating buforin II enhances antimicrobial properties J. Anal. Sci. Technol. 12 2021 9; details: cited from earlier work
From the text: as §1

Compound	Route of elimination ([1]; approved drug characteristics)	Plasma protein binding ([2]; approved drug characteristics)	Half-life ([1]; approved drug characteristics) [h]	also measured
Insulin detemir	–	–	–	Half-life ([1]; in vivo): 5 to 7 h; Route of elimination ([1]; in vivo): Mainly urinary excretion; Plasma protein binding [2]: 98%
Dalbavancin	Mainly through fecal excretion	93%	–	–
Colistin	–	–	–	Half-life ([1]; in vivo): 5 h; Route of elimination ([1]; in vivo): Mainly urinary excretion; Plasma protein binding [2]: 50%
Polymyxin B	Mainly urinary excretion	–	6 to 11.5	–
Caspofungin	Urinary and fecal excretion	97%	9 to 11	–
Rezafungin	Mainly through fecal excretion	87-99%	>130	–
Micafungin	Mainly through fecal excretion	>99%	14 to 17	–
Insulin degludec	Mainly urinary excretion	>99%	25	–
Daptomycin	Urinary excretion	90-94%	–	–
CCCCCCCCCCCCCCCC(=O)N[C@@H](CCCCN)C(=O)N[C@@H](Cc1c[nH]c2ccccc12)C(=O)N[C@@H](CCCCN)C(=O)N[C@@H](CC(C)C)C(=O)N[C@@H](Cc1ccccc1)C(=O)N[C@@H](CCCCN)C(=O)N[C@@H](CCCCN)C(=O)N[C@H](C(=O)NCC(=O)N[C@@H](C)C(=O)N[C@H](C(=O)N[C@@H](CC(C)C)C(=O)N[C@@H](CCCCN)C(=O)N[C@H](C(=O)N[C@@H](CC(C)C)C(N)=O)C(C)C)C(C)C)[C@@H](C)CC [pCM15] (Palmitoyl-KWKLFKKIGAVLKVL-NH2)	–	–	–	Cytotoxicity [3]: 35.0% ± 4.8
pal-KLVANNTRLTKPK- (FFGINTIPIAC)-GGLIDIAPHQISSV [pATIPC]	–	–	–	Increase in particle size after one week of storage as a solution [4]: 10 nm; Encapsulation (lipopeptide in form <0.2 μm, in mixed micelles) [5]: around 60%; pATIPC antigen remaining inside the micelles [6]: more than 50%
AGRGKQGGKVRAKAKTRSSRAGLQFPVGRVHRLLRKGNY [Buforin I]	–	–	–	MIC for the MRSA strain (MRSA strain): 14 µg/mL; Concentration with activity against S. aureus (S. aureus): 10 µg/mL

Reference: PMC11774939, “Optimizing lipopeptide bioactivity: The impact of non-ionic surfactant dressing” (Journal of Pharmaceutical Analysis, 2024)
